# Where no end group is shown, it is not given here.
# Columns and labels:
# [1] = system: urinary collagen type II degradation products (CTX-II); test: 3-month oral sCT treatment, 24 hours urinary CTX-II corrected for creatinine; assay type: in vivo, human
# Experimental: (§1) Women receive treatment with either daily (0.15, 0.4, 1.0, or 2.5 mg) orally dosed sCT (see below for pharmaceutical compositions) combined with eligen technology-based carrier molecule (200 mg), or placebo for 3 months. All participants receive a calcium supplement of 1000 mg plus 400 IU of vitamin D daily throughout the study. Efficacy parameters are 24 hours urinary C-terminal telopeptide of collagen type I (CTX-I) and CTX-II corrected for creatinine excretion assessed at baseline and after 3-month therapy.
# (§2) C-telopeptide of type I collagen (CTX I) is considered to be a specific marker sensitive to bone resorption; conversely, type II collagen C-telopeptide (CTX-II) is considered to be a useful cartilage marker.
# [2] = system: urinary C-terminal telopeptide of collagen type I (CTX-I); test: 3-month oral sCT treatment, 24 hours urinary CTX-I corrected for creatinine; assay type: in vivo, human; conditions: 1.0 mg sCT daily oral, 3-month treatment, compared to placebo group, p<0.001
# Experimental: as §1, §2
# [3] = system: cartilage; conditions: cited from earlier work
# [4] = system: animal epiphyseal cartilage, rabbit and human cartilage; conditions: in vitro; cited from earlier work
# [5] = in vivo
# [6] = Water solubility of delivery agent
compound,measurement,setting,value
salmon calcitonin [sCT],decrease in urinary CTX-II after 3-month treatment,"[1]; 0.4 mg sCT daily oral, postmenopausal women, compared to placebo, p=0.04",−15.2%
same,decrease in urinary CTX-II after 3-month treatment,"[1]; 1.0 mg sCT daily oral, postmenopausal women, compared to placebo, p=0.009",−19.7%
same,decrease in urinary CTX-II after 3-month treatment,"[1]; 1.0 mg sCT, women in the highest tertile of baseline urinary CTX-II",−36.6%
same,decrease in urinary CTX-II after 3-month treatment,"[1]; 1.0 mg sCT, women in the lowest tertile of baseline urinary CTX-II",−9.9%
same,decrease in urinary CTX-II after 3-month treatment,"[1]; 2.5 mg sCT daily oral, postmenopausal women, compared to placebo, p=0.02",−17.5%
same,"24 hours urinary CTX-II response to oral sCT, dose relationship","[1]; 0.15, 0.4, 1.0, 2.5 mg daily, 3 months, ANOVA=0.012",clear and significant dose dependent relationship
same,reduction in 24-hours urinary CTX-I,[2],−41.0%
"calcitonin (CGNLSTCMLGTYTQDFNKFHTFPQTAIGVGAP; ends and bridges not checked; cysteine pairing not given here; UniProt P01258 85-116, looked up) [origin not specified in cited studies]",effect on cartilage,[3]; another menisectomy model (Colombo 1983),no effect on cartilage
same,effect on cartilage destruction,"[3]; rabbits treated with steroids, partial menisectomy or joint immobilization (Badurski 1991)",prevent cartilage destruction
same,effect on proteoglycan and collagen synthesis in cartilage,[4],stimulate proteoglycan and collagen synthesis
"O=C(O)CCCCCCCCCNC(=O)c1ccccc1O [SNAD, N-(10-[2-hydroxybenzoyl]amino)decanoic acid]",absorbed by the gastro-intestinal tract,[5],more than 90%
"O=C(O)CCCCCCCNC(=O)c1cc(Cl)ccc1O [5 CNAC, N-(5-chlorosalicyloyl)-8-aminocaprylic acid]",water solubility,[6],very water soluble

# Source: patent US8765675B2, “Use of calcitonin in osteoarthritis” (Novartis AG, priority 2003, dated 2014)
